{"source": "patent US10881105B2", "about": "“Method for breaking dormancy in deciduous trees” (Tapazol Chemical Works Ltd., priority 2014, dated 2021)", "tested_on": "Black Gem (P. nigra) plums", "test": "Bud break assessment after spraying, dormancy release in black gem plums (Example 1)", "type": "in vivo", "conditions": "above 15 grams per liter oil; data not shown", "method": "On the day in which spraying was initiated the number of accumulated chilling units was 14 (being equivalent of 200 hours of chilling). The trees were at a stage where 10% of the bulbs were swollen. Three branches facing different directions were selected in each tree. The upper 20 cm in each branch were examined Each branch contained approximately 13 buds. Each bud was evaluated for bud progression on three separate occasions and bud progression percentages were normalized across the examined branches [table] [table]", "data": [{"smiles": "O=[N+]([O-])c1cc(C(F)(F)F)c(Cl)c([N+](=O)[O-])c1Nc1ncc(C(F)(F)F)cc1Cl", "note": "[fluazinam, 3-chloro-N-(3-chloro-5-trifluoromethyl-2-pyridyl)-α,α,α-trifluoro-2,6-dinitro-p-toluidine]", "values": [{"measurement": "efficacy of the composition versus concentration of Fluazinam in oil (regression)", "result": "the efficacy of the composition decreased"}]}]}
